Experimental data published in US12269816B2, “Benzothiophene compound, preparation method therefor and use thereof” (SICHUAN KELUN-BIOTECH BIOPHARMACEUTICAL CO., LTD., priority 2019, dated 2025).

Assays:
[1] = test system: STING-mediated interferon (IFN) signal reporter gene in THP1-Blue™ ISG cells; assay: STING-mediated interferon (IFN) signal SEAP reporter gene assay in THP1-Blue ISG cells; format: cell-based, human; conditions: for EC50: Homo sapiens, 16 h incubation, SEAP reporter read at OD620nm; for Emax (OD620nm): highest OD620nm value generated by stimulation of the compound, 16 h; for agonistic effect on the STING-mediated Interferon (IFN) signal pathway: result in words
Description: In this experiment, the activity of the SEAP (secreted embryonic alkaline phosphatase) reporter gene regulated by the IFN regulatory factor (interferon regulatory factor) was detected in the THP1-Blue™ ISG cells (InvivoGen) to evaluate the agonistic effect of the compounds to be tested on the STING-mediated IFN signal pathway at the cellular level.
The THP1-Blue™ ISG cells (InvivoGen) in the logarithmic phase were centrifuged, and resuspended in a cell culture solution to a density of 2×10^6 cells/ml. The cell suspension was inoculated in a 96-well cell culture plate (Corning) at 50 μL/well. The mother liquor of the compound to be tested was gradiently diluted with a cell culture solution to obtain a 2× working concentration diluted solution (control compounds 1 and 2 were diluted at a 3-fold gradient: 200, 66.67, 22.22, 7.41, 2.47, 0.82, 0.27 and 0 μM; compounds 1, 2, 4, 6, 8, and 23 were diluted at a 8-fold gradient: 60, 7.5, 0.94, 0.12, 0.015, 0.0018, 0.00023 and 0 μM; and compounds 3 and 5 were diluted at a 10-fold gradient: 10, 1, 0.1, 0.01, 0.001, 0.0001, 0.00001 and 0 μM). The 2× working concentration diluted solution of the compound was added into a 96-well plate (50 μl of the culture solution containing 2% DMSO was added into the negative control well) at 50 μL/well. The culture plate was then placed in a cell incubator, and incubated for 16 h. After the cell incubation, 10 μL of the cell culture supernatant was transferred to a 96-well plate, and a QUANTI-Blue (InvivoGen) solution was added at 90 μL/well. The cells were incubated at 37° C. for 3 h. The absorbance at 620 nm (OD620nm) was read with a microplate reader.
In the table, EC50 refers to the concentration of a compound when ODM620nm value generated by stimulation of the compound reaches half of Emax; and Emax refers to the highest OD620nm value generated by stimulation of the compound.

[2] = test system: STING and its downstream proteins TBK1 and IRF3 in THP-1 cells; assay: Western blotting of phosphorylation of STING signal pathway proteins in human THP-1 cells; format: cell-based; conditions: 3 hours, protein blotting, FIGS. 1-5, result in words
Description: (§1) In this experiment, the changes in the phosphorylation levels of STING and its downstream proteins TBK1 (TANK-binding kinase 1) and IRF3 (interferon regulatory factor 3) were detected by protein blotting to evaluate the agonistic effect of the test compounds on the STING signal pathway at the cellular level.
The THP-1 cells in the logarithmic phase were centrifuged, and resuspended in a cell culture solution to a density of […]. The cell suspension was inoculated into a 12-well cell culture plate (Corning) at 0.5 mL/well. The compound to be tested was diluted with a cell culture solution to 2× working solution concentration (control compounds 1 and 2: 60 μM; compounds 1 and 3: 0.6 μM, 6 μM, and 60 μM; compounds 2, 4, 6 and 8: 6 μM, 20 μM, and 60 μM). 0.5 mL of the diluted solution of the compound was added into a 12-well plate (500 μl of the culture solution containing 2% DMSO was added into the negative control well), and the plate was incubated in a cell incubator for 3 hours. After the incubation, the cells were collected by centrifugation, lysed with 60 μL cell lysis buffer (CST) for 30 minutes, and centrifuged at 12,000 rpm for 15 minutes. The supernatant was collected to determine the protein concentration, and then an appropriate amount of 5× protein loading buffer was added. The mixture was heated at 95° C. for 10 minutes to prepare a protein electrophoresis sample. Finally protein blotting was performed to detect the phosphorylation level of the corresponding protein. The primary antibodies used in the protein blotting were purchased from CST: STING (D2P2F) rabbit mAb, Phospho-STING (Ser366) rabbit mAb, Phospho-IRF3 (Ser396) (D601M) rabbit mAb, IRF3 (D83B9) rabbit mAb, TBK1/NAK (D1B4) rabbit mAb, Phospho-TBK1/NAK (Ser172) (D52C2) XP® rabbit mAb, and GAPDH (D16H11) rabbit mAb; and the secondary antibody horseradish peroxidase-conjugated goat anti-rabbit IgG (H+L) was purchased from Zsgb-bio.

[3] = test system: STING and its downstream proteins TBK1 and IRF3 in Raw264.7 cells; assay: Western blotting of phosphorylation of STING signal pathway proteins in mouse Raw264.7 cells; format: cell-based; conditions: 3 hours, protein blotting, FIGS. 6-7, result in words
Description: as §1
The Raw264.7 cells in the logarithmic phase were centrifuged, and resuspended in a cell culture solution to a density of 1.6×10^6 cells/mL. The cell suspension was inoculated into a 6-well cell culture plate (Corning) at 1 mL/well. The compound to be tested was diluted with a cell culture solution to 2× working solution concentration (control compounds 1 and 2: 60 μM; compound 8: 0.6 μM, 6 μM, and 60 μM; compounds 2, 4 and 6: 6 μM, 20 μM, and 60 μM). 1 mL of the diluted solution of the compound was added into a 6-well plate (1 mL of the culture solution containing 2% DMSO was added into the negative control well). The plate was placed in a cell incubator, and incubated for 3 hours. After the incubation, the cells were collected by centrifugation, lysed with 60 μL cell lysis buffer (CST) for 30 minutes, and centrifuged at 12000 rpm for 15 minutes. The supernatant was collected to determine the protein concentration, and then an appropriate amount of 5× protein loading buffer was added. The mixture was heated at 95° C. for 10 minutes to prepare a protein electrophoresis sample. Finally, protein blotting was performed to detect the phosphorylation level of the corresponding protein. The primary antibodies used in the protein blotting were purchased from CST: STING (D2P2F) rabbit mAb, Phospho-STING (Ser365) rabbit mAb, Phospho-IRF3 (Ser396) (D601M) rabbit mAb, IRF3 (D83B9) rabbit mAb, TBK1/NAK (D1B4) rabbit mAb, Phospho-TBK1/NAK (Ser172) (D52C2) XPV rabbit mAb, GAPDH (D16H11) rabbit mAb; and the secondary antibody horseradish peroxidase-conjugated goat anti-rabbit IgG (H+L) was purchased from Zsgb-bio.

SMILES	EC50 [1] [nM]	Emax (OD620nm) [1] [OD620nm]	agonistic effect on the STING-mediated Interferon (IFN) signal pathway [1]	agonistic effect on the phosphorylation levels of STING, TBK1 and IRF3 [2]	agonistic effect on the phosphorylation levels of STING, TBK1 and IRF3 [3]
COc1cc2sc(C(=O)N(C)CCC(=O)O)cc2cc1OCCCOc1cc2sc(C(=O)CCC(=O)O)cc2cc1OC [Compound 4, 4-(6-(3-((2-((2-carboxyethyl)(methyl)carbamoyl)-6-methoxybenzo[b]thiophen-5-yl)oxy)propoxy)-5-methoxybenzo[b]thiophen-2-yl)-4-oxobutanoic acid]	35.5	1.97	strong agonistic effects	strong agonistic effects	strong agonistic effects
COc1cc2sc(C(=O)CCC(=O)O)cc2cc1OCCCOc1cc2sc(C(=O)N(C)CCC(=O)O)cc2cc1OC [Compound 6, 4-(5-(3-((2-((2-carboxyethyl)(methyl)carbamoyl)-5-methoxybenzo[b]thiophen-6-yl)oxy)propoxy)-6-methoxybenzo[b]thiophen-2-yl)-4-oxobutanoic acid]	74.5	1.88	strong agonistic effects	strong agonistic effects	strong agonistic effects
COc1cc2sc(C(=O)CCC(=O)O)cc2cc1OCCCOc1cc2cc(C(=O)N(C)CCC(=O)O)sc2cc1OC [Compound 8, 4-(5-(3-((2-((2-carboxyethyl)(methyl)carbamoyl)-6-methoxybenzo[b]thiophen-5-yl)oxy)propoxy)-6-methoxybenzo[b]thiophen-2-yl)-4-oxobutanoic Acid]	55.3	1.73	strong agonistic effects	strong agonistic effects	strong agonistic effects
